Source: PubChem BioAssay AID328 (DTP/NCI, 2004)
Several values for one entry are separate records, joined by “and”; a condition that tells them apart may be missing. Identical values can stand only once. Inconclusive results and toxic doses are left out.

Tested on: BDF1 mice, P388 leukemia ip, median survival T/C
Experiment: NCI In Vivo Anticancer Drug Screen. Data for tumor model P388 Leukemia (intraperitoneal) in B6D2F1 (BDF1) mice
Conditions: endpoint: median survival time, higher = longer survival
In short: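 Mice carrying the transplantable tumour receive compound or vehicle. Survival is followed in each arm, and the treated measure is divided by the vehicle measure.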

[1] = dose: 25.0 mg/kg/injection, schedule: Q01DX009 (ip), vehicle: Klucel (hydroxypropylcellulose) (HPC)
[2] = dose: 50.0 mg/kg/injection, schedule: Q01DX009 (ip), vehicle: Klucel (hydroxypropylcellulose) (HPC)
[3] = dose: 100.0 mg/kg/injection, schedule: Q04DX003 (ip), vehicle: Klucel (hydroxypropylcellulose) (HPC)
[4] = dose: 100.0 mg/kg/injection, schedule: Q04DX003 (ip), vehicle: saline with Tween-80
[5] = dose: 200.0 mg/kg/injection, schedule: Q04DX003 (ip), vehicle: saline with Tween-80
[6] = dose: 400.0 mg/kg/injection, schedule: Q04DX003 (ip), vehicle: saline with Tween-80
[7] = dose: 50.0 mg/kg/injection, schedule: Q01DX009 (ip), vehicle: saline
[8] = dose: 100.0 mg/kg/injection, schedule: Q01DX009 (ip), vehicle: saline
[9] = dose: 100.0 mg/kg/injection, schedule: Q01DX009 (ip), vehicle: saline with Tween-80
[10] = dose: 200.0 mg/kg/injection, schedule: Q01DX009 (ip), vehicle: saline with Tween-80
[11] = dose: 400.0 mg/kg/injection, schedule: Q01DX009 (ip), vehicle: saline with Tween-80
[12] = dose: 100.0 mg/kg/injection, schedule: Q01DX001 (ip), vehicle: saline with Tween-80
[13] = dose: 50.0 mg/kg/injection, schedule: Q01DX009 (ip), vehicle: saline with Tween-80
[14] = dose: 100.0 mg/kg/injection, schedule: Q01DX009 (ip), vehicle: Klucel (hydroxypropylcellulose) (HPC)

## CC1(C)N=C(N)N=C(N)N1c1ccc(-c2ccccc2)cc1
[1]
  T/C: 99 % of control
[2]
  T/C: 106 % of control

## COc1ccc(/C=N\NC(=O)OC(C)(C)C)c(OC)c1OC
dose: 100.0 mg/kg/injection, schedule: Q01DX009 (ip), vehicle: acetone
  T/C: 100 % of control
[3]
  T/C: 115 % of control
dose: 200.0 mg/kg/injection, schedule: Q01DX009 (ip), vehicle: acetone
  T/C: 86 % of control
dose: 200.0 mg/kg/injection, schedule: Q04DX003 (ip), vehicle: Klucel (hydroxypropylcellulose) (HPC)
  T/C: 110 % of control
dose: 400.0 mg/kg/injection, schedule: Q01DX009 (ip), vehicle: acetone
  T/C: 109 % of control
dose: 400.0 mg/kg/injection, schedule: Q04DX003 (ip), vehicle: Klucel (hydroxypropylcellulose) (HPC)
  T/C: 100 % of control

## Cc1ccc(NC(=O)c2ccccc2Cl)c(C)c1
[4]
  T/C: 100 % of control
[5]
  T/C: 100 % of control
[6]
  T/C: 109 % of control

## CSc1ncncc1N
[7]
  T/C: 105 % of control
[8]
  T/C: 105 % of control

## CC1OC(Oc2c(-c3ccc(O)c(O)c3)oc3cc(O)cc(O)c3c2=O)C(O)C(O)C1O (stereo not given)
[9]
  T/C: 109 % of control
[4]
  T/C: 113 % of control
[10]
  T/C: 104 % of control
[5]
  T/C: 109 % of control
dose: 264.0 mg/kg/injection, schedule: Q04DX003 (ip), vehicle: saline with Tween-80
  T/C: 104 % of control
[11]
  T/C: 118 % of control
[6]
  T/C: 104 % of control
dose: 600.0 mg/kg/injection, schedule: Q04DX003 (ip), vehicle: saline with Tween-80
  T/C: 104 % of control

## CC1(C)OCC(/C=C/C=N/Nc2ccc([N+](=O)[O-])cc2)O1 (stereo not given)
[12]
  T/C: 105 % of control
dose: 200.0 mg/kg/injection, schedule: Q01DX001 (ip), vehicle: saline with Tween-80
  T/C: 110 % of control

## C=CCNCCN1CCN(CCCN2c3ccccc3Sc3ccc(C(F)(F)F)cc32)CC1
dose: 6.25 mg/kg/injection, schedule: Q04DX003 (ip), vehicle: saline
  T/C: 108 % of control and 110 % of control
dose: 12.5 mg/kg/injection, schedule: Q04DX003 (ip), vehicle: saline
  T/C: 87 % of control and 110 % of control
dose: 25.0 mg/kg/injection, schedule: Q04DX003 (ip), vehicle: saline
  T/C: 100 % of control and 118 % of control
dose: 50.0 mg/kg/injection, schedule: Q04DX003 (ip), vehicle: saline
  T/C: 116 % of control

## CC1(C)C(N2CCOCC2)C(c2ccccc2)S1(=O)=O (stereo not given)
[12]
  T/C: 100 % of control
dose: 400.0 mg/kg/injection, schedule: Q01DX001 (ip), vehicle: saline with Tween-80
  T/C: 95 % of control

## O=[N+]([O-])c1ccc2c(c1)c(-c1cc(Cl)cc(Cl)c1)nc1ccccc12
dose: 25.0 mg/kg/injection, schedule: Q01DX009 (ip), vehicle: saline with Tween-80
  T/C: 108 % of control
[13]
  T/C: 97 % of control
[9]
  T/C: 101 % of control
[4]
  T/C: 99 % of control
[10]
  T/C: 90 % of control
[5]
  T/C: 88 % of control
[11]
  T/C: 99 % of control
[6]
  T/C: 107 % of control

## CCCn1cnc2c(=S)nc[nH]c21
[9]
  T/C: 108 % of control
[4]
  T/C: 109 % of control
[5]
  T/C: 118 % of control
[6]
  T/C: 113 % of control

## Nc1ccc(N)c2c1C(=O)c1cccc([N+](=O)[O-])c1C2=O
dose: 25.0 mg/kg/injection, schedule: Q01DX010 (ip), vehicle: carboxymethylcellulose (CMC)
  T/C: 95 % of control
dose: 50.0 mg/kg/injection, schedule: Q01DX010 (ip), vehicle: carboxymethylcellulose (CMC)
  T/C: 105 % of control
dose: 100.0 mg/kg/injection, schedule: Q01DX010 (ip), vehicle: carboxymethylcellulose (CMC)
  T/C: 115 % of control
dose: 200.0 mg/kg/injection, schedule: Q01DX010 (ip), vehicle: carboxymethylcellulose (CMC)
  T/C: 105 % of control
dose: 400.0 mg/kg/injection, schedule: Q01DX010 (ip), vehicle: carboxymethylcellulose (CMC)
  T/C: 110 % of control

## COC(=O)c1c([N+](=O)[O-])cccc1[N+](=O)[O-]
dose: 50.0 mg/kg/injection, schedule: Q01DX005 (ip), vehicle: saline with Tween-80
  T/C: 97 % of control
dose: 100.0 mg/kg/injection, schedule: Q01DX005 (ip), vehicle: saline with Tween-80
  T/C: 97 % of control
dose: 200.0 mg/kg/injection, schedule: Q01DX005 (ip), vehicle: saline with Tween-80
  T/C: 94 % of control

## Cc1c2oc3c(C)ccc(C(=O)NCc4cccnc4)c3nc-2c(C(=O)NCc2cccnc2)c(N)c1=O
[4]
  T/C: 96 % of control
[5]
  T/C: 96 % of control
[6]
  T/C: 100 % of control

## O=S(=O)(Oc1ccccc1)C(F)(F)C(F)(F)C(F)(F)C(F)(F)F
[7]
  T/C: 109 % of control
[8]
  T/C: 106 % of control
dose: 200.0 mg/kg/injection, schedule: Q01DX009 (ip), vehicle: saline
  T/C: 109 % of control

## O=C(O)CNCc1ccc(Cl)cc1
dose: 50.0 mg/kg/injection, schedule: Q04DX003 (ip), vehicle: water
  T/C: 103 % of control
dose: 100.0 mg/kg/injection, schedule: Q04DX003 (ip), vehicle: water
  T/C: 90 % of control
dose: 200.0 mg/kg/injection, schedule: Q04DX003 (ip), vehicle: water
  T/C: 94 % of control

## COc1cc2oc(-c3ccc(O)cc3O)c(CC=C(C)C)c(=O)c2c(O)c1/C=C/C(C)C
dose: 4.1 mg/kg/injection, schedule: Q01DX009 (ip), vehicle: Klucel (hydroxypropylcellulose) (HPC)
  T/C: 115 % of control
dose: 6.25 mg/kg/injection, schedule: Q01DX009 (ip), vehicle: Klucel (hydroxypropylcellulose) (HPC)
  T/C: 106 % of control
dose: 9.3 mg/kg/injection, schedule: Q01DX009 (ip), vehicle: Klucel (hydroxypropylcellulose) (HPC)
  T/C: 110 % of control
dose: 12.5 mg/kg/injection, schedule: Q01DX009 (ip), vehicle: Klucel (hydroxypropylcellulose) (HPC)
  T/C: 116 % of control
[1]
  T/C: 98 % of control
[2]
  T/C: 91 % of control
[14]
  T/C: 94 % of control

## O=C(Cn1ccc(=O)[nH]c1=O)N1CCOCC1
dose: 100.0 mg/kg/injection, schedule: Q01DX009 (ip), vehicle: water
  T/C: 104 % of control
dose: 200.0 mg/kg/injection, schedule: Q01DX009 (ip), vehicle: water
  T/C: 104 % of control
dose: 400.0 mg/kg/injection, schedule: Q01DX009 (ip), vehicle: water
  T/C: 95 % of control

## CSc1nc(N)cc(NC(=O)CCl)n1
[1]
  T/C: 113 % of control
[2]
  T/C: 95 % of control
[13]
  T/C: 100 % of control
dose: 50.0 mg/kg/injection, schedule: Q04DX003 (ip), vehicle: Klucel (hydroxypropylcellulose) (HPC)
  T/C: 113 % of control
[14]
  T/C: 122 % of control
[9]
  T/C: 100 % of control
[3]
  T/C: 118 % of control

## CCN(CC)CCOC(=O)c1ccc(NC(=O)Nc2ccc(C(=O)OCCN(CC)CC)cc2)cc1
[9]
  T/C: 119 % of control

## Cc1nc2c(NC(=O)C(F)(F)F)nn(C)c2nc1C
[4]
  T/C: 100 % of control
[5]
  T/C: 104 % of control
[6]
  T/C: 100 % of control

## CCCN(Cc1ccc(CN(CCC)C(=O)C(Cl)Cl)cc1)C(=O)C(Cl)Cl
[4]
  T/C: 93 % of control
[5]
  T/C: 95 % of control
[6]
  T/C: 88 % of control

## CCOc1ccc(Nc2ncnc3nc[nH]c23)cc1CN(CCCl)CCCl
dose: 0.13 mg/kg/injection, schedule: Q04DX003 (ip), vehicle: saline
  T/C: 106 % of control
dose: 0.2 mg/kg/injection, schedule: Q04DX003 (ip), vehicle: saline
  T/C: 117 % of control
dose: 0.25 mg/kg/injection, schedule: Q01DX009 (ip), vehicle: saline
  T/C: 118 % of control
dose: 0.29 mg/kg/injection, schedule: Q04DX003 (ip), vehicle: saline
  T/C: 196 % of control
dose: 0.3 mg/kg/injection, schedule: Q04DX003 (ip), vehicle: saline
  T/C: 121 % of control
dose: 0.88 mg/kg/injection, schedule: Q04DX003 (ip), vehicle: saline
  T/C: 165 % of control
dose: 1.0 mg/kg/injection, schedule: Q01DX009 (ip), vehicle: saline
  T/C: 154 % of control
dose: 1.0 mg/kg/injection, schedule: Q04DX003 (ip), vehicle: saline
  T/C: 205 % of control
dose: 2.0 mg/kg/injection, schedule: Q01DX009 (ip), vehicle: saline
  T/C: 172 % of control
dose: 2.2 mg/kg/injection, schedule: Q01DX009 (ip), vehicle: saline
  T/C: 163 % of control
dose: 3.0 mg/kg/injection, schedule: Q04DX003 (ip), vehicle: saline
  T/C: 155 % of control
dose: 3.3 mg/kg/injection, schedule: Q01DX009 (ip), vehicle: saline
  T/C: 154 % of control

## OC(c1cc(-c2ccc(C(F)(F)F)cc2)nc(C(F)(F)F)c1)C1CCCCN1 (stereo not given)
[13]
  T/C: 108 % of control

## O=C1CCCCc2ccc(O)cc21
[9]
  T/C: 99 % of control
[10]
  T/C: 89 % of control
[11]
  T/C: 93 % of control

## C=CC(=O)NCNC(=O)C=C
dose: 132.0 mg/kg/injection, schedule: Q04DX003 (ip), vehicle: saline with Tween-80
  T/C: 118 % of control
dose: 300.0 mg/kg/injection, schedule: Q04DX003 (ip), vehicle: saline with Tween-80
  T/C: 222 % of control
